Experimental data as given in patent publication US20150110723A1, “QUINAZOLINE DERIVATIVES, COMPOSITIONS, AND USES RELATED THERETO” (EMORY UNIVERSITY, priority 2012, published 2015).
Each block holds one compound with its values, some of them ahead of it.

How the values were obtained:
[1] = target: T1, human Myeloperoxidase (Homo sapiens, UniProt P05164); experiment: Amplex Red assay of purified MPO activity; assay type: biochemical; details: isolated purified human MPO, hydrogen peroxide as substrate
T1 sequence (P05164 49-745): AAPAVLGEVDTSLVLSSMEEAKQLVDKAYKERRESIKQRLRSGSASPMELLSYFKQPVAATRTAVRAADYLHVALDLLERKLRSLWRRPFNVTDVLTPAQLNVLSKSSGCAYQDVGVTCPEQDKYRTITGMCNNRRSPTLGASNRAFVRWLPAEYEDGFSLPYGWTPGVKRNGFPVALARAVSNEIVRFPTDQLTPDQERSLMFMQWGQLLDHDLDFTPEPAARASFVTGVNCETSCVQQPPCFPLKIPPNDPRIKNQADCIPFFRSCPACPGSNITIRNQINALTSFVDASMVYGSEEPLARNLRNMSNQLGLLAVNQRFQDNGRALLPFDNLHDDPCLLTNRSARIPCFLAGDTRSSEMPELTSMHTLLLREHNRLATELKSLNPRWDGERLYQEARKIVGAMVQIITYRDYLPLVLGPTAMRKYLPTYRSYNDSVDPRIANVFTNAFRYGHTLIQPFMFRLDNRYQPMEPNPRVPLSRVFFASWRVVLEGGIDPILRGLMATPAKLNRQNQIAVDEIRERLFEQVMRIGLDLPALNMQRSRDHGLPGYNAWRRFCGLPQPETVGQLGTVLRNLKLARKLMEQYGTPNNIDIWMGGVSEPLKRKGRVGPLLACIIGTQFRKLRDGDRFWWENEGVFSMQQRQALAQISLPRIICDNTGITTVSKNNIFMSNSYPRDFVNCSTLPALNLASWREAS
Procedure: In Table 2, isolated, purified human Myeloperoxidase was used in an enzyme assay system including hydrogen peroxide as substrate and Amplex Red to measure MPO enzymatic activity.
Purified human MPO is mixed with the detector molecule Amplex Red (10-acetyl-3,7-dihydroxyphenoxazine) which increases fluorescence at 590 nm) Hydrogen peroxide is added to initiate the reaction and fluorescence is monitored.

[2] = test system: Nox2/MPO System; experiment: L-012 cell-free assay of Nox2/MPO activity (human neutrophil plasma membranes plus recombinant p47phox, p67phox, Rac1Q61L); assay type: biochemical; details: for IC50: read-out: L-012 Assay IC50 μM ± SEM; for Inhibition of ROS from neutrophil membranes assayed by L-012 (figure legend): cell-free L-012 assay, FIG. 1 / FIG. 2
Procedure: In Table 1 a cell-free semi-recombinant system (consisting of isolated plasma membranes from human neutrophils as a source for Nox2-p22phox and MPO), supplemented with recombinant p47phox, p67phox and Rac1Q61L (activated Rac), expressed in and isolated from of E. coli. L-012 luminescence was used as a readout to monitor enzymatic activity that monitors the combined enzymatic activity of both the Nox2 system and MPO.
Plasma membranes were prepared from human neutrophils. […]. Membranes were stored at −80 C until use. Membranes are mixed with recombinant, purified cytosolic regulatory proteins (p67Np47 chimera, and constitutively active Rac1 mutant Q61) and FAD, along with varying concentrations of compound, and L-012, which luminesces when it reacts with ROS derived either from Nox2 or from MPO. The reaction is initiated by addition of NADPH and SDS (an artificial activatyor for Nox2). See Curnutte et al., (1987) J. Biol. Chem. 262: 6450-6452.

[3] = test system: xanthine oxidase; experiment: Xanthine/xanthine oxidase-L-012 control (interference) assay; assay type: biochemical; details: L-012 luminescence, FIG. 1 / FIG. 2
Procedure: Two assays are used to rule out interference. In one assay, xanthine oxidase replaces the Nox2 and MPO enzymatic system as the source of ROS. See Ritsick et al. (2007) Free Radic Biol Med 43: 31-8. Xanthine was added to start the reaction and L012 luminescence was recorded. In a control for the luminol assay, exogenous H2O2 is supplied in place of the Nox expressing H2O2-generating cells or enzyme and luminol luminescence is recorded.

[4] = target: T2, Nox2 (Homo sapiens, UniProt P04839); experiment: Cytochrome c reduction assay for superoxide in activated human neutrophils; assay type: cell-based; details: for IC50: isolated human neutrophils, PMA-activated, absorbance at 550 nm
T2 construct: superoxide originates from the endogenous Nox2 enzyme system; endogenous in cells; host or cells: isolated human neutrophils, PMA-stimulated
T2 sequence (P04839 2-570 limits assumed): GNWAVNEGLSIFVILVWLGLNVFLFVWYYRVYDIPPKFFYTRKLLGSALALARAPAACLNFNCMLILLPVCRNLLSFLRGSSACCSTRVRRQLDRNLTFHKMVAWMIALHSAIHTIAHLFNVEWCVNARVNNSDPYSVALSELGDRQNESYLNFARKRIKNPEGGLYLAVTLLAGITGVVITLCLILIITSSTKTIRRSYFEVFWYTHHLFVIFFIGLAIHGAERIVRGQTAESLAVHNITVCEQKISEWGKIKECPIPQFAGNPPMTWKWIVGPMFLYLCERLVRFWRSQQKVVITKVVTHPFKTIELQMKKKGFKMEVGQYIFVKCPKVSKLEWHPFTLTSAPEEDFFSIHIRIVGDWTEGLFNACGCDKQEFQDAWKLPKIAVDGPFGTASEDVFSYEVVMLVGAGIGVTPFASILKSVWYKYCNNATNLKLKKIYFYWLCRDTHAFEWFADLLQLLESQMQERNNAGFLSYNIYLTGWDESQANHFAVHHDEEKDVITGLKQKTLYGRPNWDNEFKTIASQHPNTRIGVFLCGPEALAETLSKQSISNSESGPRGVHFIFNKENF
T2 sequence (P13498 2-195 partner limits assumed): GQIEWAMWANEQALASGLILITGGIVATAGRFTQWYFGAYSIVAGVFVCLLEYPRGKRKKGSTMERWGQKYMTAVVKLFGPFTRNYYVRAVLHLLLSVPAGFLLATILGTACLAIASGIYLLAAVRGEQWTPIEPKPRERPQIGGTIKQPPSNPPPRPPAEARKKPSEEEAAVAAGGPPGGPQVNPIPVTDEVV
Procedure: Isolated human neutrophils represent a system in which superoxide originates from the endogenous Nox2 enzyme system, and can be measured using cytochrome c reduction that is inhibitable by added superoxide dismutase. In Table 3, Nox2 activity in isolated human neutrophils was assayed using cytochrome c reduction.
Isolated human neutrophils, which contain large amounts of Nox2 enzyme, are mixed with superoxide detector cytochrome c. Phorbol 12-myristate 13-acetate (PMA) is added at 1 μM final to stimulate Nox2 activation resulting superoxide production; absorbance at 550 nm is monitored.

[5] = cell-free semi-recombinant system, L-012 luminescence, does not distinguish Nox2 from MPO inhibition

IC50 [1]: 2 µM
Compound: CCN(CC)CCn1c(=S)[nH]c2ccccc2c1=O [TG6-27-2]

IC50 [1]: 1 µM
Compound: CN(C)CCCn1c(=S)[nH]c2cc(F)c(F)cc2c1=O [TG6-250]

IC50 [1]: 1.5 µM
Compound: O=c1c2ccccc2[nH]c(=S)n1CCN1CCCC1 [TG6-52-2]

Compound: O=c1c2ccccc2[nH]c(=S)n1CCc1ccccn1 [Compound 2zzz]
IC50 [2, 5]: 4 ± 1 µM

Effect on control assay with ROS generated from xanthine plus xanthine oxidase [3]: does not affect control assay | IC50 [4]: 3 µM
Compound: CN(C)CCCCn1c(SCC(=O)Nc2nc(-c3ccc(Br)cc3)cs2)nc2ccccc2c1=O [AS158B]
Inhibition of ROS from neutrophil membranes assayed by L-012 (figure legend) [2]: inhibits ROS generation

IC50 [1]: 1 µM
Compound: O=c1c2ccccc2[nH]c(=S)n1CCc1cnc[nH]1 [LY1-27]

Compound: COC(=O)c1ccc2c(=O)n(N)c(=S)[nH]c2c1 [AS261b]
IC50 [1]: 1.5 µM

IC50 [4]: 1 µM
Compound: CN(C)CCCn1c(SCC(=O)Nc2nc(-c3ccc(Br)cc3)cs2)nc2ccccc2c1=O [AS148A]

L-012 Assay IC50 μM ± SEM [2, 5]: N•I
Compound: CN(C)CCCn1c(=O)[nH]c2ccccc2c1=O [Compound 2b]

IC50 [1]: 1.5 µM
Compound: CN(C)CCCn1c(=S)[nH]c2ccccc2c1=O [TG6-17-2]

IC50 [2, 5]: 0.7 ± 0.1 µM
Compound: CCn1c(=S)[nH]c2ccc(F)cc2c1=O [Compound 3k]

IC50 [4]: 1.5 µM
Compound: CN(C)CCCCn1c(SCC(=O)Nc2nc(-c3cccc(Br)c3)cs2)nc2ccccc2c1=O [AS195]

IC50 [1]: 1.5 µM
Compound: O=c1c2cc(F)ccc2[nH]c(=S)n1CCc1cnc[nH]1 [LY1-73]

IC50 [1]: 1 µM
Compound: CN1CCN(CCCn2c(=S)[nH]c3ccc(F)cc3c2=O)CC1 [LY1-107N]

IC50 [2, 5]: 0.7 ± 0.1 µM
Compound: CC(C)n1c(=S)[nH]c2cc(F)c(F)cc2c1=O [Compound 3l]

IC50 [1]: 4 µM
Compound: COc1cc2[nH]c(=S)n(CCCCN(C)C)c(=O)c2cc1OC [AS2-30]

IC50 [2, 5]: 1.2 ± 0.1 µM | Effect on control assay with ROS generated from xanthine plus xanthine oxidase [3]: does not affect control assay | IC50 [1]: 1 µM
Compound: CN(C)CCCn1c(=S)[nH]c2ccc(Cl)cc2c1=O [TG6-44]
Inhibition of ROS from neutrophil membranes assayed by L-012 (figure legend) [2]: Inhibits ROS activity

IC50 [4]: 0.6 µM
Compound: CCN(CC)CCCn1c(SCC(=O)Nc2nc(-c3ccc(Br)cc3)cs2)nc2ccccc2c1=O [AS158A]

IC50 [1]: 3 µM
Compound: COCCCn1c(=S)[nH]c2ccccc2c1=O [LY1-21]

IC50 [1]: 2 µM
Compound: CN(C)CCCn1c(=S)[nH]c2ccc(F)cc2c1=O [TG6-248]

IC50 [2, 5]: 0.7 ± 0.1 µM
Compound: COc1cc2[nH]c(=S)n(C(C)C)c(=O)c2cc1OC [Compound 3m]

Inhibition of superoxide production from Nox2 in intact human neutrophils (figure legend) ([4]; cytochrome c reduction, absorbance increase at 550 nm, FIG. 3): inhibits superoxide production | IC50 [4]: 2 µM
Compound: CC(Sc1nc2ccccc2c(=O)n1CCCN(C)C)C(=O)Nc1nc(-c2cccc(Br)c2)cs1 (centres unmarked) [TG6-73]

IC50 [2, 5]: 3.3 ± 0.3 µM
Compound: CN(C)CCCn1c(=S)[nH]c2ccccc2c1=O [Compound 2a]
